Here are results for one molecule from US11485720B2, “Anti-infective agents” (University of Dundee, priority 2016, dated 2022).

Assay [1] relates to Plasmodium falciparum strain 3D7. Kind of assay: Plasmodium falciparum 3D7 in vitro growth inhibition (SYBRgreen I). Format: cell-based. The conditions noted are these: Plasmodium falciparum, 3D7; read-out: pEC50 for Pf 3D7 (converted). Put shortly:
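10-point, 1-in-3 dilution series from a top concentration of 50 μM; parasite growth read as SYBRgreen I fluorescence on double-stranded DNA (ex 485/em 528 nm). EC50 = concentration causing 50% parasite death, from at least 3 independent experiments.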

For assay [2], the target named is T1, Plasmodium falciparum lysyl t-RNA synthetase (Pf-KRS1) (Plasmodium falciparum, UniProt Q8IDJ8).
T1 construct: Pf KRS1-; made in house; host or cells: E. coli BL21 (DE3)
T1 sequence (Q8IDJ8 entry or part of it, looked up, natural form): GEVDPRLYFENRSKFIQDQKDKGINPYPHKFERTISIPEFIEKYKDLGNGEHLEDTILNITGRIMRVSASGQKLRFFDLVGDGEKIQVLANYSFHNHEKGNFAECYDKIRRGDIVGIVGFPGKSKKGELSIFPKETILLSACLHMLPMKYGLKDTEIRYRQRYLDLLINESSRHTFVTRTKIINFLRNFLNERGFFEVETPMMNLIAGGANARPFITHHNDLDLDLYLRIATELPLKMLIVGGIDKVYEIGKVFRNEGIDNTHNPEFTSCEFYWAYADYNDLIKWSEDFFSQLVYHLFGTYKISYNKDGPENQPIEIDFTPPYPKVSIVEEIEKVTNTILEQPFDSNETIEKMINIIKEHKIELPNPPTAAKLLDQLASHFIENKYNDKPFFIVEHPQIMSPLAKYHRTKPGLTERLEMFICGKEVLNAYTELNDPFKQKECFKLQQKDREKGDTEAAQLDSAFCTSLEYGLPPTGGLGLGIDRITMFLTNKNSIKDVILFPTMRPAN
Briefly: Pf-KRS1 inhibition biochemical assay (Kinase-Glo, ATP depletion). The conditions noted are these: read-out: Pf-KRS pIC50 (converted). Put shortly: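 Recombinant Pf-KRS1 (75 nM working concentration) in HEPES/KOH/MgCl2/KCl buffer with 3 μM ATP, 60 μM L-lysine, 0.4 mg/ml yeast tRNA and pyrophosphatase; compounds at 50 μM–2.5 nM final. Reaction ran 5 h at room temperature, then remaining ATP was read by Kinase-Glo luminescence. IC50 came from nonlinear fits of % inhibition against controls.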

In the case of `O=C(NCC1CCCCC1)c1cc(=O)c2cc(F)cc(O)c2o1` [Example 70, N-(cyclohexylmethyl)-6-fluoro-8-hydroxy-4-oxo-4H-chromene-2-carboxamide], in assay [1], the EC50 is 100 nM. For the same molecule, the IC50 in assay [2] was 50.1 nM.
